Read-outs that look alike come from different tables or passages of the source.
How the values were obtained:
serum lipids = settings: 0.2% in high cholesterol diet, cited from earlier work; for TG level lowering: not significant; for TC level lowering: significant
serum TC = settings: 1% added to diet containing 0.5% of cholesterol; cited from earlier work
male ddy strain mice = test: Acute toxicity test, mice, oral; type: in vivo, mouse (male ddy strain); settings: 0.1 to 5 g/Kg; for Mortality: 2 weeks observation
Description: (§1) Acute toxicity tests were conducted using 5 male ddy strain mice (30±2 g) and 5 male Wistar strain rats (100±2 g) for each compound by oral administration.
(§2) The above 66 compounds of esters, and as control drugs, cycloartenol, 24-methylenecycloartanol, cyclobranol, and γ-orizanol were given forcibly to the above-mentioned mice and rats by means of a throat explorer rod in doses of 0.1 to 5 g/Kg for mice and 2 to 6 g/Kg for rats. During the test, the temperature of the animal room was kept at 22° to 23 ° C. […] In the inspection conducted after 2-week observation, no macroscopic lesion was found in any part of main organs. Thus the compound of the invention has very low toxicity, so that the LD50 value could not determined.

male Wistar strain rats = test: Acute toxicity test, rats, oral; type: in vivo, rat (male Wistar strain); settings: 2 to 6 g/Kg; for Mortality: 2 weeks observation
Description: as §1, §2

[1] = tested on: serum lipids and serum lipid hydroperoxide; test: Pharmacological test method A for anti-hyperlipidemic activity (serum lipids, 2 weeks feeding); type: in vivo, male Wistar strain rats
Outline: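 Serum TC, HDL-C (heparin precipitation), PL, TG and LPO measured by colorimetric kits, largely at 500 nm, from abdominal aorta blood after 16 h fasting. Rats (male Wistar, 10/group) ate a cholesterol/cholic acid diet 10 g/day for 2 weeks, supplemented with 1% each of three cycloartane triterpenoids.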

[2] = Body weight of rats in method B; design: species or system male Wistar strain rats; settings: rat, in vivo
Description: Male Wistar strain rats (100±1 g, each 8 rats were formed into a group except that the control group fed with a hyperlipidemic diet was formed of 16 rats) were used as test animals. A powdery diet (CE-2, supplied by Clea Japan, Inc.) was used as ordinary diet. The hyperlipidemic diet was prepared by fortifying the ordinary diet with cholesterol (1%) and cholic acid (0.5%). Each test compound (1%) for administration was admixed with the hyperlipidemic diet. Each two rats were kept in a cage and given the prescribed diet and water ad libitum. Thus the rats were fed for 4 weeks at a constant temperature of 23±1° C. and a constant R.H. of 55±5%. Finally, the rats were fasted from food except water for 16 hours (from 4 p.m. of the 28th test day to 8 a.m. of the 29th test day), and under anesthesia with pentbarbital sodium (tradename: Nembutal), blood was taken from each rat through the descending abdominal arota. Then, TC, HDL-C, TG, PL, and LPO in the serum were measured in the following manner.

[3] = tested on: serum lipids and serum lipid hydroperoxide; test: Pharmacological test method B for anti-hyperlipidemic activity (serum lipids, 4 weeks feeding); type: in vivo, male Wistar strain rats; design: AI Diff.: unit not given here; settings: for AI [(TC - HDL-C)/(HDL-C)] / HDL-C in serum / LPO in serum / PL in serum / TC in serum / TG in serum: 1% in hyperlipidemic diet, 4 weeks; for change in vivo at 1 % in diet: Rattus norvegicus, po, 672 h; for change in vivo at 1 % in diet / AI Diff. / HDL-C Diff. / LPO Diff. / PL Diff. / TC % of diff. / TC Diff. / TG Diff.: versus control group
Outline: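 Male Wistar rats (100±1 g, n=8; hyperlipidemic control n=16) were fed for 4 weeks a diet with 1% cholesterol and 0.5% cholic acid, with test compound admixed at 1%. After a 16 h fast, serum was taken from the abdominal aorta under pentobarbital. TC, HDL-C and PL were measured by enzymatic colorimetric kits at 500 nm; TG by acetylacetone kit; LPO also measured.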

O=C(O)C=Cc1ccccc1 [cinnamic acid]
decrease of TC, TG, or PL level (serum lipids): no decrease

COc1cc(C(=O)O)ccc1O [vanillic acid]
decrease of TC, TG, or PL level (serum lipids): no decrease

C=C(CCC(C)C1CCC2(C)C3CCC4C(C)(C)C(O)CCC45CC35CCC12C)C(C)C (stereo not drawn) [Sample 3, 24-methylenecycloartanol]
percentage of TC lowering (serum TC): 10.2%
Symptoms of toxicosis (male ddy strain mice): no symptom of toxicosis appeared
Mortality (male ddy strain mice): none of the animals died
Symptoms of toxicosis (male Wistar strain rats): no symptom of toxicosis appeared
Mortality (male Wistar strain rats): none of the animals died
AI change [1]: only a slight tendency to increase

O=C(O)/C=C/c1ccc(O)cc1 [p-coumaric acid]
TG level lowering (serum lipids): 19.8%
TC level lowering (serum lipids): 9.4%
PL level lowering (serum lipids): scarcely observed

CC(C)=CCC[C@@H](C)[C@H]1CC[C@@]2(C)[C@@H]3CC[C@H]4C(C)(C)[C@@H](O)CC[C@@]45C[C@@]35CC[C@]12C [Sample 1, cycloartenol]
percentage of TC lowering (serum TC): 13.7%
Symptoms of toxicosis (male ddy strain mice): no symptom of toxicosis appeared
Mortality (male ddy strain mice): none of the animals died
Symptoms of toxicosis (male Wistar strain rats): no symptom of toxicosis appeared
Mortality (male Wistar strain rats): none of the animals died
AI change [1]: showed tendencies to decrease it

CCC(=Cc1ccc(O)c(OC)c1)C(=O)OC1CCC23CC24CCC2(C)C(C(C)CCC=C(C)C)CCC2(C)C4CCC3C1(C)C (stereo not drawn) [Example 120, cycloartenyl ester of 4-hydroxy-3-methoxy-α-ethylcinnamic acid]
Body weight during feed period, 1st day [2]: 105 ± 3.2 g
Body weight during feed period, 8th day [2]: 144 ± 9.4 g
Body weight during feed period, 15th day [2]: 191 ± 18.2 g
Body weight during feed period, 22nd day [2]: 242 ± 15.7 g
Body weight during feed period, 28th day [2]: 272 ± 20.1 g
Body weight just before blood sampling, 29th day [2]: 258 ± 23.0 g
AI [(TC - HDL-C)/(HDL-C)] [3]: 7.260
HDL-C in serum [3]: 24.6 mg/dL
LPO in serum [3]: 2.06 nmol/mL
PL in serum [3]: 105.3 mg/dL
TC in serum [3]: 203.2 mg/dL
TG in serum [3]: 53.0 mg/dL
change in vivo at 1 % in diet ([3]; read-out: AI % of diff.): -66.6%
change in vivo at 1 % in diet ([3]; read-out: HDL-C % of diff.): 82.2%
change in vivo at 1 % in diet ([3]; read-out: LPO % of diff.): -27%
change in vivo at 1 % in diet ([3]; read-out: PL % of diff.): -24.8%
change in vivo at 1 % in diet ([3]; read-out: TG % of diff.): -6.2%
AI Diff. [3]: -14.5
HDL-C Diff. [3]: +11.1 mg/dl
LPO Diff. [3]: -0.76 nmol/mL
PL Diff. [3]: -34.8 mg/dL
TC % of diff. [3]: -33.9%
TC Diff. [3]: -104.1 mg/dL
TG Diff. [3]: -3.5 mg/dL

O=C(O)/C=C/c1ccc(O)c(O)c1 [caffeic acid]
decrease of TC, TG, or PL level (serum lipids): no decrease

CCOc1cc(C=C(C)C(=O)OC2CCC34CC35CCC3(C)C(C(C)CCC(C)=C(C)C)CCC3(C)C5CCC4C2(C)C)ccc1O (stereo not drawn) [Example 140, cyclobranyl ester of 3-ethoxy-4-hydroxy-α-methylcinnamic acid]
Body weight during feed period, 1st day [2]: 105 ± 3.6 g
Body weight during feed period, 8th day [2]: 147 ± 9.5 g
Body weight during feed period, 15th day [2]: 194 ± 17.2 g
Body weight during feed period, 22nd day [2]: 246 ± 15.8 g
Body weight during feed period, 28th day [2]: 273 ± 18.7 g
Body weight just before blood sampling, 29th day [2]: 261 ± 15.6 g
AI [(TC - HDL-C)/(HDL-C)] [3]: 2.602
HDL-C in serum [3]: 54.8 mg/dL
LPO in serum [3]: 2.02 nmol/mL
PL in serum [3]: 98.0 mg/dL
TC in serum [3]: 197.4 mg/dL
TG in serum [3]: 52.4 mg/dL
change in vivo at 1 % in diet ([3]; read-out: AI % of diff.): -88%
change in vivo at 1 % in diet ([3]; read-out: HDL-C % of diff.): 306%
change in vivo at 1 % in diet ([3]; read-out: LPO % of diff.): -28.4%
change in vivo at 1 % in diet ([3]; read-out: PL % of diff.): -30%
change in vivo at 1 % in diet ([3]; read-out: TG % of diff.): -7.3%
AI Diff. [3]: -19.16
HDL-C Diff. [3]: +41.3 mg/dl
LPO Diff. [3]: -0.80 nmol/mL
PL Diff. [3]: -42.1 mg/dL
TC % of diff. [3]: -35.8%
TC Diff. [3]: -109.9 mg/dL
TG Diff. [3]: -4.1 mg/dL
HDL-C rise compared with normal diet group ([3]; versus normal diet group): remarkable rises

CC(C)=C(C)CCC(C)C1CCC2(C)C3CCC4C(C)(C)C(O)CCC45CC35CCC12C (stereo not drawn) [Sample 2, cyclobranol]
Symptoms of toxicosis (male ddy strain mice): no symptom of toxicosis appeared
Mortality (male ddy strain mice): none of the animals died
Symptoms of toxicosis (male Wistar strain rats): no symptom of toxicosis appeared
Mortality (male Wistar strain rats): none of the animals died
AI change [1]: showed tendencies to decrease it

COc1cc(/C=C/C(=O)O)ccc1O [ferulic acid, 4-hydroxy-3-methoxycinnamic acid]
TG level lowering (serum lipids): 18.7%
TC level lowering (serum lipids): 10.8%
PL level lowering (serum lipids): scarcely observed

COc1cc(C=C(C)C(=O)OC2CCC34CC35CCC3(C)C(C(C)CCC=C(C)C)CCC3(C)C5CCC4C2(C)C)ccc1N (stereo not drawn) [Example 189, Cycloartenyl ester of 4-amino-3-methoxy-α-methylcinnamic acid]
Body weight during feed period, 1st day [2]: 104 ± 3.8 g
Body weight during feed period, 8th day [2]: 142 ± 8.1 g
Body weight during feed period, 15th day [2]: 188 ± 12.6 g
Body weight during feed period, 22nd day [2]: 239 ± 20.6 g
Body weight during feed period, 28th day [2]: 268 ± 22.7 g
Body weight just before blood sampling, 29th day [2]: 256 ± 20.2 g
AI [(TC - HDL-C)/(HDL-C)] [3]: 4.071
HDL-C in serum [3]: 35.4 mg/dL
LPO in serum [3]: 2.05 nmol/mL
PL in serum [3]: 115.0 mg/dL
TC in serum [3]: 179.5 mg/dL
TG in serum [3]: 58.4 mg/dL

From patent US4748161A, “Triterpenyl esters of organic acids and hypolipidemic agents composed of them” (Amano Pharmaceutical Co., Ltd., priority 1984, dated 1988)
